Test: wn = mass fraction of the nth substance listed
Settings: 100 kPa, Liquid; for mass density: Vibrating tube method; for viscosity: Concentric cylinders viscometry

CCC(=O)[O-].C[N+](C)(C)CCO [cholinium propanoate] + O
Settings | mass density [kg/m3] | viscosity [mPa·s]
318.15 K, w2 = 0.003 | 1056.4 | –
318.15 K, w2 = 0.01 | 1057 | –
318.15 K, w2 = 0.021 | 1058.1 | –
318.15 K, w2 = 0.025 | 1058.3 | –
318.15 K, w2 = 0.046 | 1059.9 | –
318.15 K, w2 = 0.064 | 1061.2 | –
318.15 K, w2 = 0.1 | 1062.9 | –
318.15 K, w2 = 0.127 | 1063.6 | –
318.15 K, w2 = 0.208 | 1063.4 | –
318.15 K, w2 = 0.262 | 1060.7 | –
323.15 K, w2 = 0.003 | 1053.6 | 455.4
323.15 K, w2 = 0.01 | 1054.3 | 360
323.15 K, w2 = 0.021 | 1055.4 | 267.4
323.15 K, w2 = 0.025 | 1055.7 | 241.9
323.15 K, w2 = 0.046 | 1057.3 | 153.1
323.15 K, w2 = 0.064 | 1058.7 | 108
323.15 K, w2 = 0.1 | 1060.2 | 61.3
323.15 K, w2 = 0.127 | 1060.8 | 44.8
323.15 K, w2 = 0.208 | 1060.6 | 20.4
323.15 K, w2 = 0.262 | 1057.8 | 14.7
328.15 K, w2 = 0.003 | 1050.9 | 336.7
328.15 K, w2 = 0.01 | 1051.6 | 270
328.15 K, w2 = 0.021 | 1052.7 | 203.8
328.15 K, w2 = 0.025 | 1053 | 185.5
328.15 K, w2 = 0.046 | 1054.6 | 119.9
328.15 K, w2 = 0.064 | 1056 | 86
328.15 K, w2 = 0.1 | 1057.5 | 50
328.15 K, w2 = 0.127 | 1058 | 36.9
328.15 K, w2 = 0.208 | 1057.8 | 17.2
328.15 K, w2 = 0.262 | 1054.9 | 12.5
333.15 K, w2 = 0.003 | 1048.2 | 253.8
333.15 K, w2 = 0.01 | 1049 | 206.2
333.15 K, w2 = 0.021 | 1050.1 | 158.1
333.15 K, w2 = 0.025 | 1050.3 | 144.6
333.15 K, w2 = 0.046 | 1052.1 | 95.3
333.15 K, w2 = 0.064 | 1053.3 | 69.4
333.15 K, w2 = 0.1 | 1054.8 | 41.2
333.15 K, w2 = 0.127 | 1055.4 | 30.7
333.15 K, w2 = 0.208 | 1054.9 | 14.6
333.15 K, w2 = 0.262 | 1051.9 | 10.6
338.15 K, w2 = 0.003 | 1045.5 | 194.8
338.15 K, w2 = 0.01 | 1046.3 | 160.1
338.15 K, w2 = 0.021 | 1047.5 | 124.5
338.15 K, w2 = 0.025 | 1047.8 | 114.4
338.15 K, w2 = 0.046 | 1049.4 | 76.7
338.15 K, w2 = 0.064 | 1050.7 | 56.7
338.15 K, w2 = 0.1 | 1052.1 | 34.3
338.15 K, w2 = 0.127 | 1052.6 | 25.8
338.15 K, w2 = 0.208 | 1052 | 12.5
338.15 K, w2 = 0.262 | 1048.9 | 9.3
343.15 K, w2 = 0.003 | 1042.9 | 151.9
343.15 K, w2 = 0.01 | 1043.7 | 126.2
343.15 K, w2 = 0.021 | 1044.8 | 99.3
343.15 K, w2 = 0.025 | 1045.1 | 91.8
343.15 K, w2 = 0.046 | 1046.7 | 62.5
343.15 K, w2 = 0.064 | 1047.9 | 46.8
343.15 K, w2 = 0.1 | 1049.3 | 28.8
343.15 K, w2 = 0.127 | 1049.7 | 21.9
343.15 K, w2 = 0.208 | 1049.1 | 10.8
343.15 K, w2 = 0.262 | 1045.8 | 8.1

From the NIST ThermoML archive (doi:10.1016/j.jct.2014.12.020)
